Measurements from patent US20230133243A1, “CONDITIONING REGIMENS FOR IN VIVO GENE THERAPY” (Fred Hutchinson Cancer Center, priority 2020, published 2023).

Tests used:
[1] = Tolerability, physical health, hematology and blood chemistry in the NHP in vivo HSC gene therapy study; set-up: species or system rhesus macaques; conditions: NHP #2, given through a gastric catheter over 5 days; day 3 after HDAd injection
Description: NHP #1 received a donor vector containing two payload modules: i) a transposon module for random integration into host cell genomes of a human γ-globin gene operably linked with a mini-β-globin LCR, together with an MGMT^P140K selection marker operably linked with an EF1α promoter, and ii) a CRISPR/Cas9 module for CRISPR/Cas9-mediated reactivation of endogenous rhesus γ-globin expression (FIG. 8B). This combination donor vector was co-injected with a support vector that expresses an activity-enhanced Sleeping Beauty transposase (SB100x) (HDAd-SB), activity of which mediates γ-globin gene addition by integration of the transposon into host cell genomes and triggers the destruction of the CRISPR/Cas9 module thus restricting the duration of the CRISPR/Cas9 system's expression and activity (FIG. 8B). […] The vector injected into NHP #3 was similar to the NHP #1 vector but encoded rhesus γ-globin instead of human γ-globin to minimize immune responses against transgene products in the NHP (FIG. 8D).
None of the three animals had detectable anti-vector antibodies at the time of enrollment. Unexpectedly, NHP #1 acquired antibodies during quarantine (titer 1:680). NHP #1 and #3 were monitored for 6 months. […] Despite this, a set of relevant data could be collected from this animal. […]

human MGMT^P140K = assay: Anti-human MGMT^P140K immune responses under adaptive immunosuppression; assay type: in vivo, rhesus macaques; conditions: fully immunocompetent animals
Description: Serum antibody (IgG and IgM) titers against recombinant human MGMT protein in NHP #3 (FIG. 18A) and NHP #1 (FIG. 18B).
To suppress adaptive immune responses, NHP #1 received daily tacrolimus/sirolimus/MMF. […] For NHP #3, it was therefore decided to administer only tacrolimus (SC) as this had been sufficient in myelo-ablated/-conditioned rhesus macaques.

IL-6 = assay: Rhesus serum cytokine levels by cytometric bead array after IV HDAd5/35++ (IL-6); assay type: in vivo, rhesus macaques; conditions: NHPs; measured by IL-6 and/or TNF levels
Description: FIGS. 12A-12E. […] (FIGS. 12A-12C) Serum IL-6. (FIGS. 12D, 12E) Serum TNFα.
FIG. 29. […] Serum IL-6 (pg/mL) levels are shown for NHP #4. […] Arrows indicate administration of adenoviral vector.
FIG. 31. […] Serum IL-6 (pg/mL) levels are shown for NHP #5. […] Arrows indicate administration of adenoviral vector.
Serum cytokines returned back to baseline by 24 hrs.

## C=CC[C@@H]1/C=C(\C)C[C@H](C)C[C@H](OC)[C@H]2O[C@@](O)(C(=O)C(=O)N3CCCC[C@H]3C(=O)O[C@H](/C(C)=C/[C@@H]3CC[C@@H](O)[C@H](OC)C3)[C@H](C)[C@@H](O)CC1=O)[C@H](C)C[C@@H]2OC [tacrolimus]
[1]
  outcome of overdose: had to be euthanized
Human MGMT^P140K
  control of anti-human MGMT^P140K antibodies (and T-cell responses): did not prevent

## anakinra: engineered human IL-1 receptor antagonist (IL-1Ra), recombinant non-glycosylated protein, SEQ ID NO: 1
IL-6
  innate immune response to HDAd5/35++: potent agent for suppressing in vivo immune responses
